# Strand notation (5' to 3'): a small letter for the sugar, then the base; units joined by * are phosphorothioate-linked, units joined directly phosphodiester-linked; [ ] holds rarer units or linkages, { } end groups; capitals alone tell only the bases. e = 2'-O-(2-methoxyethyl) (MOE); [5mC] = 5-methylcytosine; d = 2'-deoxy (DNA)
# Tests used:
# human Factor 7 mRNA [1] = test: Dose-dependent antisense inhibition of human Factor 7 in HepB3 cells, lipofectin; assay type: cell-based; settings: for percent inhibition of Factor 7: approximately 16 hours; for percent inhibition of Factor 7 mRNA, relative to untreated control cells: HepB3 cells, approx. 16 hours (Table 14)
# Description: Cells were plated at a density of 4,000 cells per well and treated with lipofectin reagent with 3.125 nM, 6.25 nM, 12.5 nM, 25 nM, 50 nM, and 100 nM concentrations of antisense oligonucleotide, as indicated in Table 3. After a treatment period of approximately 16 hours, RNA was isolated from the cells and Factor 7 mRNA levels were measured by real-time RT-PCR, as described herein. Human Factor 7 primer probe set RTS 2927 (forward sequence: […], incorporated herein as SEQ ID NO: 164; reverse sequence: […], incorporated herein as SEQ ID NO: 165; probe sequence: TGGGTGGTCTCCGCGGCCX, incorporated herein as SEQ ID NO: 166) was used to measure mRNA levels. Factor 7 mRNA levels were adjusted according to total RNA content as measured by RIBOGREEN®. Results are presented as percent inhibition of Factor 7, relative to untreated control cells.
# Cells were plated at a density of 4,000 cells per well and transfected using lipofectin reagent with 6.25 nM, 12.5 nM, 25.0 nM, 50.0 nM, and 100.0 nM concentrations of antisense oligonucleotide, as indicated in Table 7. After a treatment period of approximately 16 hours, RNA was isolated from the cells and Factor 7 mRNA levels were measured by real-time RT-PCR, as described herein. Human Factor 7 primer probe set RTS 2927 was used to measure mRNA levels. Factor 7 mRNA levels were adjusted according to total RNA content as measured by RIBOGREEN®. Results are presented as percent inhibition of Factor 7, relative to untreated control cells.
# Cells were plated at a density of 4,000 cells per well and transfected using lipofectin reagent with 3.125 nM, 6.25 nM, 12.5 nM, 25 nM, 50 nM, and 100 nM concentrations of antisense oligonucleotide, as specified in Table 14. After a treatment period of approximately 16 hours, RNA was isolated from the cells and Factor 7 mRNA levels were measured by quantitative real-time PCR. Human Factor 7 primer probe set RTS 2927 was used to measure mRNA levels. Factor 7 mRNA levels were adjusted according to total RNA content, as measured by RIBOGREEN®. Results are presented as percent inhibition of Factor 7, relative to untreated control cells.
# human Factor 7 mRNA [2] = test: Antisense inhibition of human Factor 7 mRNA in HepB3 cells, 50 nM antisense oligonucleotide, lipofectin; assay type: cell-based; settings: for % Inhibition: lipofectin, approximately 24 hours
# Procedure, shortened: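 After transfection of wells containing 4,000 cells, treatment ran for approximately 24 h. RIBOGREEN®-measured total RNA served for normalisation, and inhibition was calculated as a percentage of untreated control.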
# [3] = 50 nM antisense oligonucleotide, Factor 7 mRNA by real-time RT-PCR (RTS 2927), relative to untreated control
# [4] = Table 1, 50 nM, relative to untreated control cells
# [5] = oligonucleotides targeted to nucleobases 14707 to 14732 of SEQ ID NO: 1 (Table 11)
Substance,"percent inhibition of Factor 7 (human Factor 7 mRNA [1]; Table 7, 6.25 nM) [%]","percent inhibition of Factor 7 (human Factor 7 mRNA [1]; Table 7, 12.5 nM) [%]","percent inhibition of Factor 7 (human Factor 7 mRNA [1]; Table 7, 25.0 nM) [%]","percent inhibition of Factor 7 (human Factor 7 mRNA [1]; Table 7, 50.0 nM) [%]","percent inhibition of Factor 7 (human Factor 7 mRNA [1]; Table 7, 100.0 nM) [%]",% Inhibition (human Factor 7 mRNA [2]; [3]) [%],also measured
416438 (antisense e[5mC]*eA*eG*eG*eA*dG*d[5mC]*d[5mC]*d[5mC]*d[5mC]*d[5mC]*dA*dT*dT*d[5mC]*eT*eG*eG*e[5mC]*eA) [compound 416438],11,33,56,75,82,63,–
407641 (antisense e[5mC]*e[5mC]*eT*eG*eA*dG*dG*d[5mC]*d[5mC]*dA*dG*d[5mC]*dA*dG*dA*eT*e[5mC]*eA*e[5mC]*eG) [compound 407641],–,–,–,–,–,73,"percent inhibition of Factor 7 (human Factor 7 mRNA [1]; Table 3, 3.125 nM): 53%; percent inhibition of Factor 7 (human Factor 7 mRNA [1]; Table 3, 6.25 nM): 53%; percent inhibition of Factor 7 (human Factor 7 mRNA [1]; Table 3, 12.5 nM): 71%; percent inhibition of Factor 7 (human Factor 7 mRNA [1]; Table 3, 25.0 nM): 84%; percent inhibition of Factor 7 (human Factor 7 mRNA [1]; Table 3, 50.0 nM): 88%; percent inhibition of Factor 7 (human Factor 7 mRNA [1]; Table 3, 100.0 nM): 89%; % Inhibition (human Factor 7 mRNA [2]; [4]): 94%; % Inhibition (human Factor 7 mRNA levels) (human Factor 7 mRNA [2]; [5]): 68%"
422294 (antisense eG*eA*dG*dT*dT*d[5mC]*dT*dG*d[5mC]*dA*dG*dG*dA*dG*d[5mC]*eG*eG*e[5mC]*e[5mC]*eT) [compound 422294],–,–,–,–,–,–,"percent inhibition of Factor 7 mRNA, relative to untreated control cells (human Factor 7 mRNA [1]; 3.125 nM): 9%; percent inhibition of Factor 7 mRNA, relative to untreated control cells (human Factor 7 mRNA [1]; 12.5 nM): 32%; percent inhibition of Factor 7 mRNA, relative to untreated control cells (human Factor 7 mRNA [1]; 25 nM): 61%; percent inhibition of Factor 7 mRNA, relative to untreated control cells (human Factor 7 mRNA [1]; 50 nM): 77%; percent inhibition of Factor 7 mRNA, relative to untreated control cells (human Factor 7 mRNA [1]; 100 nM): 84%; percent inhibition of Factor 7 mRNA, relative to untreated control cells (human Factor 7 mRNA [1]): 21%; % Inhibition of human Factor 7 mRNA levels (human Factor 7 mRNA [2]; gapmers targeted to nucleobases 4868 to 4899 of SEQ ID NO: 1, Table 8): 78%"
416549 (antisense eG*eA*e[5mC]*eA*eA*dT*dG*dG*dT*d[5mC]*dA*dG*dG*dG*d[5mC]*eT*eG*eG*eT*eT) [compound 416549],38,44,63,73,78,68,% Inhibition (human Factor 7 mRNA levels) (human Factor 7 mRNA [2]; oligonucleotides targeted to nucleobases 11830 to 11869 of SEQ ID NO: 1 (Table 9)): 69%
416455 (antisense e[5mC]*eG*e[5mC]*e[5mC]*eG*dG*d[5mC]*dT*d[5mC]*dT*dG*d[5mC]*dT*d[5mC]*dA*eT*e[5mC]*e[5mC]*e[5mC]*e[5mC]) [compound 416455],28,44,64,78,87,72,% Inhibition (human Factor 7 mRNA levels) (human Factor 7 mRNA [2]; oligonucleotides targeted to nucleobases 13760 to 13789 of SEQ ID NO: 1 (Table 10)): 51%
407643 (antisense e[5mC]*eA*e[5mC]*eA*e[5mC]*dA*dT*dG*dG*dA*dG*dT*d[5mC]*dA*dG*e[5mC]*eA*eT*e[5mC]*eG) [compound 407643],36,49,70,83,93,80,"percent inhibition of Factor 7 (human Factor 7 mRNA [1]; Table 3, 3.125 nM): 16%; percent inhibition of Factor 7 (human Factor 7 mRNA [1]; Table 3, 6.25 nM): 59%; percent inhibition of Factor 7 (human Factor 7 mRNA [1]; Table 3, 12.5 nM): 68%; percent inhibition of Factor 7 (human Factor 7 mRNA [1]; Table 3, 25.0 nM): 76%; percent inhibition of Factor 7 (human Factor 7 mRNA [1]; Table 3, 50.0 nM): 92%; percent inhibition of Factor 7 (human Factor 7 mRNA [1]; Table 3, 100.0 nM): 95%; % Inhibition (human Factor 7 mRNA [2]; [4]): 84%; % Inhibition (human Factor 7 mRNA levels) (human Factor 7 mRNA [2]; oligonucleotides targeted to nucleobases 15098 to 15122 of SEQ ID NO: 1 (Table 12)): 69%"
407594 (antisense e[5mC]*e[5mC]*eT*eG*e[5mC]*dA*dG*d[5mC]*d[5mC]*dA*dG*dG*d[5mC]*dA*dG*e[5mC]*e[5mC]*e[5mC]*eT*eG) [compound 407594],–,–,–,–,–,–,"percent inhibition of Factor 7 (human Factor 7 mRNA [1]; Table 3, 3.125 nM): 10%; percent inhibition of Factor 7 (human Factor 7 mRNA [1]; Table 3, 6.25 nM): 34%; percent inhibition of Factor 7 (human Factor 7 mRNA [1]; Table 3, 12.5 nM): 63%; percent inhibition of Factor 7 (human Factor 7 mRNA [1]; Table 3, 25.0 nM): 77%; percent inhibition of Factor 7 (human Factor 7 mRNA [1]; Table 3, 50.0 nM): 84%; percent inhibition of Factor 7 (human Factor 7 mRNA [1]; Table 3, 100.0 nM): 80%; % Inhibition (human Factor 7 mRNA [2]; [4]): 87%"
416446 (antisense eG*eG*eT*e[5mC]*eA*d[5mC]*dT*dG*d[5mC]*dA*dG*dT*dA*d[5mC]*dT*eG*e[5mC]*eT*e[5mC]*eA) [compound 416446],25,24,50,69,64,64,–
407936 (antisense eG*eG*e[5mC]*eA*eT*dT*d[5mC]*dG*d[5mC]*d[5mC]*dA*d[5mC]*d[5mC]*dA*dT*eG*e[5mC]*eA*eT*eG) [compound 407936],–,–,–,–,–,–,"percent inhibition of Factor 7 (human Factor 7 mRNA [1]; Table 3, 3.125 nM): 45%; percent inhibition of Factor 7 (human Factor 7 mRNA [1]; Table 3, 6.25 nM): 77%; percent inhibition of Factor 7 (human Factor 7 mRNA [1]; Table 3, 12.5 nM): 79%; percent inhibition of Factor 7 (human Factor 7 mRNA [1]; Table 3, 25.0 nM): 86%; percent inhibition of Factor 7 (human Factor 7 mRNA [1]; Table 3, 50.0 nM): 91%; percent inhibition of Factor 7 (human Factor 7 mRNA [1]; Table 3, 100.0 nM): 90%; % Inhibition (human Factor 7 mRNA [2]; [4]): 91%"
416449 (antisense eT*eA*eG*eG*eT*dA*dT*dT*dT*dT*dT*d[5mC]*d[5mC]*dA*d[5mC]*eA*eT*eG*eG*eA) [compound 416449],19,33,45,65,85,68,–
416477 (antisense e[5mC]*eA*eG*e[5mC]*e[5mC]*dT*dG*dA*dG*dG*d[5mC]*d[5mC]*dA*dG*d[5mC]*eA*eG*eA*eT*e[5mC]) [compound 416477],21,46,64,78,87,74,% Inhibition (human Factor 7 mRNA levels) (human Factor 7 mRNA [2]; [5]): 71%
416475 (antisense e[5mC]*eT*e[5mC]*eA*eG*d[5mC]*dT*dG*dG*dG*d[5mC]*dT*dG*dT*d[5mC]*eT*eG*e[5mC]*e[5mC]*eT) [compound 416475],–,–,–,–,–,70,–
422129 (antisense eG*eT*eT*eA*e[5mC]*dT*dG*dA*dG*d[5mC]*dG*d[5mC]*dG*dG*dA*eA*eG*eA*eA*eG) [compound 422129],–,–,–,–,–,–,"% Inhibition (human Factor 7 mRNA [2]; Table 6, 50 nM): 45%"
416431 (antisense eA*eG*eG*eG*eA*dG*d[5mC]*d[5mC]*d[5mC]*dG*dG*d[5mC]*d[5mC]*dG*d[5mC]*eA*eG*e[5mC]*eT*e[5mC]) [compound 416431],–,–,–,–,–,25,–

# Reference: patent publication US9029337B2, “Modulation of factor 7 expression” (Isis Pharmaceuticals, Inc., priority 2007, dated 2015)
